Patent US20080096903A1, “SULFAMOYL-CONTAINING DERIVATIVES AND USES THEREOF” (Wyeth, priority 2006, published 2008)
Where two headings read alike, the source gives them in different places.

Experiments:
Hsp90α Protein = Hsp90α Protein (Homo sapiens, UniProt P07900); experiment: Hsp90 CE Competitive Binding Assay (displacement of fluorescein-labelled geldanamycin)
Description: Hsp90 CE Competitive Binding Assay: […]
b) “Competitor”, fluorescein-labelled geldanamycin • The competitor was synthesized as described by Llauger-Bufi et al, Bioorg.
The electrophoresis running buffer (RB) is comprised of 200 mM CAPSO, pH 9.2 (pH-adjusted with Trizma base). The sample buffer (SB) is comprised of 10 mM Trizma base, pH 8.0 (pH-adjusted with glacial acetic acid), 5 mM MgCl2, 5 mM DTT, and BSA and Triton as noted.
Capillary electrophoresis was performed on Cetek Gemini Systems™ using laser-induced fluorescence detection. Fused-silica capillaries (50 μm I.D.×30 cm, approximately 10 cm length from end to detection window) were internally coated using Cetek's proprietary methods.
Each sample (i.e., fermentation extract, partially-purified fraction, or compound mixture, or pure compound) to be assayed is prediluted 1:20 or 1:40 in SB containing 0.02% Triton. 1 μl of each prediluted sample is then deposited into a 96-well microtiter plate and mixed with 8 μl of Target Cocktail. These samples can be stored at 4° C. until ready for assay.
When ready for analysis, the plates are transferred to the deck of a Gemini System. To each mixture of sample and target, 1 μl of Competitor Cocktail is added and mixed thoroughly. This reaction mixture is allowed to incubate for 8 minutes on the refrigerated deck of the Gemini System (temperature 8° C.). During incubation, the CE capillary is rinsed for 30 seconds with RB containing 2 mg/ml BSA, and then 60 seconds with RB. At the end of incubation, a small plug of the reaction mixture is then injected into the capillary at low pressure (0.5 psi) for 7 seconds. The loaded capillary is then dipped into reservoirs containing RB and the sample is electrophoresed at 10 kV for 6 minutes at a temperature of 8° C.
The electrophoretic separation produces a graphical profile known as an “electropherogram,” which contains a peak representing the intact complex between Hsp90 and competitor, and a smaller series (typically, a triplet) of peaks representing unbound competitor. […] Dose-response experiments, which evaluate the degree of competitor displacement as a function of sample concentration, are subsequently run in triplicate to validate hits and to quantitate their potencies, which are expressed as IC50 values.
Negative controls are comprised of 0.5% DMSO, and positive controls are comprised of 0.1 μg/ml 17-AAG.

[1] = system: Hsp90 (luciferase refolding, cancer cell lysate); experiment: Luciferase Refolding Assay; type: biochemical; settings: inhibition of luciferase refolding by Hsp90
Description: Luciferase Refolding Assay
• A. Cancer cells are cultured according to ATCC guidelines. Cell lysates are prepared as follows to be used as source of heat shock proteins: Resuspend the washed cell pellet in 3˜10 packed cell volumes of Buffer A (10 mM HEPES pH 7.9, 1.5 mM MgCl2, 10 mM KCl, 0.5 mM DTT, and 0.2 mM PMSF). Spin at 2000 rpm for 5 minutes in GS-6R (Beckman) centrifuge, 4° C. and resuspend cells in Buffer A up to a final of 3 packed cell volumes (i.e., add ˜2 volumes). Incubate on ice for 10 minutes. Transfer the cells to a Wheaton A Dounce homogenizer and lyse with 10-25 strokes. Stain an aliquot with Trypan Blue and check for >90% lysis under microscope. Spin the homogenized mixture at 3000 rpm for 20 minutes in GS-6R (Beckman) centrifuge, 4° C., to pellet nuclei. To the cytoplasmic fraction (cell lysate), add 1 mM ATP, 14.3 mM creatine phosphate, 71 μg/ml phosphokinase, 3 mM DTT, 113 mM KAc, and 0.7 mM MgAc2. Aliquot into eppendorf tubes and freeze at −80° C. • B. Luciferase Stability Buffer (SB): 25 mM Tris-HCl, pH 7.8; 8 mM MgSO4; 0.1 mM EDTA; 10 mg/ml BSA; 10% Glycerol; 0.25% Triton X-100. Make 2×SB and store at −20° C. • C. Cell Lysate (CL) Buffer: Buffer A containing 1 mM ATP; 14.3 mM creatine phosphate; 71 ug/ml phosphokinase; 3 mM DTT; 113 mM KAc; and 0.7 mM MgAc2. • D. Luciferase: Promega E1701, 14.9 mg/ml=244 μM. Dilute 1:60 in 30 mM Tris-HCl, pH 7.4, 2 mM DTT, and 20% glycerol, resulting in a stock luciferase solution with concentration of 4 μM (250 ng/μl). • E. Luciferase substrate: Promega E1500. Procedure: • 1) Mix luciferase solution 1:1 with 2× SB buffer. Incubate at 42° C. for 8 min to denature. […] Data analysis: Luciferase refolding activity of a cell lysate sample with or without HSP90 inhibitor is represented as the net of luminescence reading from a cell lysate sample subtracting results from negative control (no cell lysate or heat shock proteins). Inhibition effect of a compound is calculated as the percentage of refolding activity relative to samples without any inhibitors in the cell lysate.
The ability of selected compounds of the invention to inhibit luciferase refolding by Hsp90 based on this assay is summarized in Table 14.

[2] = system: HER2/Neu protein in SK-OV-3 cells; experiment: Hsp90 Client Protein Degradation Assay; type: cell-based; settings: for IC50: Homo sapiens, 50% degradation of HER2/Neu protein, SK-OV-3 cells, overnight
Description: Hsp90 Client Protein Degradation Assay
SK-OV-3 cells were obtained from ATCC (Rockville, Md.) and maintained in McCoy's 5A Media with 10% Fetal Bovine Serum (ATCC) at 37° C. with 5% CO2 in humidified incubators. Cells were plated at 2 ml per well at 100,000 cells/ml in six well dishes. Cells were incubated overnight at 37° C. and given test agent compound the following day in a titrated series. Cell incubation in the presence of compound proceeded overnight at 37° with 5% CO2 in media in the presence of serum. The following day media was aspirated and cells washed on plate with 2 mls of cold D-PBS. 100 ul of 1× Laemli's buffer was added to each well and total protein obtained by scraping the cell pellet and removing to 1.5 ml Eppendorf tube on ice. Cells were further lysed and DNA was fragmented by sonication and cells debris pelleted at 14 K for 3 min at 4° C. 20 ul was loaded per well and fractionated on PAGE gels. Western analyses were performed using abs specifically for the Hsp90 client proteins HER-2 (Santa Cruz Biotech, Santa Cruz, Calif.) and c-raf-1 (Cell Signaling Technology, Danvers, Mass.). Loading per well was controlled by testing for g-actin on Western Blots (Cell Signaling Technology) simultaneous to testing for HER-2 or c-raf-1. Detection was via a secondary antibody conjugated to Horse radish peroxidase (HRP) and enhanced chemiluminescent detection from Supersignal West Pico Detection Kits from Pierce (Rockford, Ill.). Autoradiography was via Kodak X-OMAT film and developing via a Kodak M35 film processor.

Human cancer cell lines = experiment: Cancer-Derived Cell Line Growth Inhibition Assays; type: cell-based; settings: 72 h, 3 days, Cell Titer Blue
Description: Cancer-Derived Cell Line Growth Inhibition Assays
Human cancer cell lines were obtained from ATCC (Rockville, Md.) and maintained according to their media specifications at 37° C. in humidified incubators with or without 5% CO2. Cells were plated at 0.1 ml/well of 50,000 cells per ml in 96 well plates. Monolayer grown cells were incubated overnight prior to the addition of compound while cells grown in suspension are given compound on the same day as plating. The test agent is titrated in duplicate for each compound and concentration tested. Cells are incubated in the presence of compound at 37° C. in humidified incubators for 3 days prior to addition of 20 ul of Cell Titer Blue (Promega, Madison, Wis.) which quantifies total cellular metabolic activity by conversion of resazurin to resorufin. Cell titer blue measures metabolic activity by quantifying the amount of biological activity present in a well using reduction of the dye resazurin as an end-point metric. Cells then are allowed to incubate at 37° C. for 2 hours and then analyzed using a Bio-TEK (Winooski, Vt.) Synergy HT 96/384 well plate reader set for 530 nm/590 nm, Ex/Em. Data analysis and depiction is conducted using EXCEL.

[3] = initial structure activity relationship table, read-out: HSP90 CE IC50
[4] = Table 14, inhibition of binding of labeled geldanamycin to Hsp90, read-out: CE IC50
[5] = versus corresponding alcohol (R═H)

Row | Compound | IC50 (Hsp90α Protein; [3]) | IC50 [1] | IC50 [2] | IC50 (Hsp90α Protein; [4]) | IC50 (Human cancer cell lines) | more activity than the corresponding alcohol (R═H), client protein assay [2, 5] | more activity than the corresponding alcohol (R═H), CE Hsp90 assay (Hsp90α Protein; [5]) | IC50 (Hsp90α Protein)
1 | Nc1ncnc2c1ncn2C1OC(COP(=O)(O)O)C(O)C1O (centres unmarked) [AMP, reference compound] | > 144000 nM |  |  |  |  |  |  | 
2 | Nc1nc(F)nc2c1nc(Cc1cc3c(cc1I)OCO3)n2CCOS(N)(=O)=O [Example 1, Sulfamic Acid 2-[6-amino-2-fluoro-8-(6-iodo-benzo[1,3]dioxol-5-ylmethyl)-purin-9-yl]-ethyl ester] |  | < 1000 nM | < 3000 nM | < 40 nM | < 5000 nM |  |  | 
3 | Nc1nc(F)nc2c1nc(Cc1cc3c(cc1I)OCO3)n2CCCOS(N)(=O)=O [Example 2, Sulfamic Acid 3-[6-Amino-2-fluoro-8-(6-iodo-benzo[1,3]dioxol-5-ylmethyl)-purin-9-yl]-propyl ester] |  | < 1000 nM | < 3000 nM | < 40 nM | < 5000 nM |  |  | 
4 | Nc1nc(F)nc2c1nc(Cc1cc3c(cc1I)OCO3)n2CCCCCOS(N)(=O)=O [Example 4, Sulfamic Acid 5-[6-amino-2-fluoro-8-(6-iodo-benzo[1,3]dioxol-5-ylmethyl)-purin-9-yl]-pentyl ester] |  | < 1000 nM | < 3000 nM | < 40 nM | < 5000 nM |  |  | 
5 | Nc1nc(F)nc2c1nc(Cc1cc3c(cc1I)OCO3)n2CCCCCCOS(N)(=O)=O [Example 5, Sulfamic Acid 6-[6-amino-2-fluoro-8-(6-iodo-benzo[1,3]dioxol-5-ylmethyl)-purin-9-yl]-hexyl ester] |  | < 1000 nM | < 3000 nM | < 40 nM | < 5000 nM | 16 fold | 35 fold | 
6 | Nc1nc(F)nc2c1nc(Cc1cc3c(cc1I)OCO3)n2CCCCCCCOS(N)(=O)=O [Example 6, Sulfamic Acid 7-[6-amino-2-fluoro-8-(6-iodo-benzo[1,3]dioxol-5-ylmethyl)-purin-9-yl]-heptyl ester] |  | < 1000 nM | < 3000 nM | < 40 nM | < 5000 nM |  |  | 
7 | Nc1nc(F)nc2c1nc(Cc1cc3c(cc1I)OCO3)n2CCCCCCCCOS(N)(=O)=O [Example 7, Sulfamic Acid 8-[6-amino-2-fluoro-8-(6-iodo-benzo[1,3]dioxol-5-ylmethyl)-purin-9-yl]-octyl ester] |  |  | < 50000 nM | < 2000 nM | < 100000 nM |  |  | 
8 | Nc1nc(F)nc2c1nc(Cc1cc3c(cc1I)OCO3)n2CCOCCOS(N)(=O)=O [Example 8, Sulfamic Acid 2-{2-[6-amino-2-fluoro-8-(6-iodo-benzo[1,3]dioxol-5-ylmethyl)-purin-9-yl]-ethoxy}-ethyl ester] |  | < 1000 nM | < 3000 nM | < 40 nM | < 5000 nM |  |  | 
9 | Nc1nc(F)nc2c1nc(Cc1cc3c(cc1I)OCO3)n2CCOCCCOS(N)(=O)=O [Example 9, Sulfamic Acid 3-{2-[6-amino-2-fluoro-8-(6-iodo-benzo[1,3]dioxol-5-ylmethyl)-purin-9-yl]-ethoxy}-propyl ester] |  | < 1000 nM | < 3000 nM | < 40 nM | < 5000 nM |  |  | 
10 | Nc1nc(F)nc2c1nc(Cc1cc3c(cc1I)OCO3)n2CCOCCCCOS(N)(=O)=O [Example 10, Sulfamic Acid 4-{2-[6-amino-2-fluoro-8-(6-iodo-benzo[1,3]dioxol-5-ylmethyl)-purin-9-yl]-ethoxy}-butyl ester] |  | < 1000 nM | < 3000 nM | < 40 nM | < 5000 nM |  |  | 
11 | Nc1nc(F)nc2c1ncn2C1OC(COS(N)(=O)=O)C(O)C1O (centres unmarked) [FSA, reference compound] | 700 nM |  |  |  |  |  |  | 
12 | Nc1nc(F)nc2c1ncn2C1OC(CO)C(O)C1O (centres unmarked) [Fluoroadenosine (FA), Fluoroadenosine, reference compound] |  |  |  |  |  |  |  | 22000 nM
13 | Nc1nc(F)nc2[nH]c(Cc3cc4c(cc3I)OCO4)nc12 [Intermediate 5, 2-Fluoro-8-(6-iodo-benzo[1,3]dioxol-5-ylmethyl)-9H-purin-6-ylamine] |  | < 5000 nM | < 50000 nM | < 2000 nM | < 100000 nM |  |  | 
